37 compounds from patent US7041687B2, “Indazole compounds useful as protein kinase inhibitors” (Vertex Pharmaceuticals Incorporated, priority 2002, dated 2006) can be followed below.

Type in all cases: biochemical
In assay [1] the target is PKA (Homo sapiens, UniProt P17612). The experiment in a line: PKA inhibition assay (standard coupled enzyme assay). The conditions noted are these: 50 μM ATP, 80 μM Kemptide, 18 nM PKA, 30° C. The procedure: Compounds were screened for their ability to inhibit PKA using a standard coupled enzyme assay (Fox et al., Protein Sci., (1998) 7, 2249). Assays were carried out in a mixture of 100 mM HEPES 7.5, 10 mM MgCl2, 25 mM NaCl, 1 mM DTT and 3% DMSO. Final substrate concentrations in the assay were 50 μM ATP (Sigma Chemicals) and 80 μM peptide (Kemptide, American Peptide, Sunnyvale, Calif.). Assays were carried out at 30° C. and 18 nM PKA. Final concentrations of the components of the coupled enzyme system were 2.5 mM phosphoenolpyruvate, 300 μM NADH, 30 μg/ml pyruvate kinase and 10 μg/ml lactate dehydrogenase.
An assay stock buffer solution was prepared containing all of the reagents listed above, with the exception of ATP, and the test compound of interest. 55 μl of the stock solution was placed in a 96 well plate followed by addition of 2 μl of DMSO stock containing serial dilutions of the test compound (typically starting from a final concentration of 5 μM). The plate was preincubated for 10 minutes at 30° C. and the reaction initiated by addition of 5 μl of ATP (final concentration 50 μM). Initial reaction rates were determined with a Molecular Devices SpectraMax Plus plate reader over a 15 minute time course. IC50 and Ki data were calculated from non-linear regression analysis using the Prism software package (GraphPad Prism version 3.0a for Macintosh, GraphPad Software, San Diego Calif., USA).

The target of assay [2] is T1, PDK-1 (Homo sapiens, UniProt O15530).
T1 sequence (O15530 1-556): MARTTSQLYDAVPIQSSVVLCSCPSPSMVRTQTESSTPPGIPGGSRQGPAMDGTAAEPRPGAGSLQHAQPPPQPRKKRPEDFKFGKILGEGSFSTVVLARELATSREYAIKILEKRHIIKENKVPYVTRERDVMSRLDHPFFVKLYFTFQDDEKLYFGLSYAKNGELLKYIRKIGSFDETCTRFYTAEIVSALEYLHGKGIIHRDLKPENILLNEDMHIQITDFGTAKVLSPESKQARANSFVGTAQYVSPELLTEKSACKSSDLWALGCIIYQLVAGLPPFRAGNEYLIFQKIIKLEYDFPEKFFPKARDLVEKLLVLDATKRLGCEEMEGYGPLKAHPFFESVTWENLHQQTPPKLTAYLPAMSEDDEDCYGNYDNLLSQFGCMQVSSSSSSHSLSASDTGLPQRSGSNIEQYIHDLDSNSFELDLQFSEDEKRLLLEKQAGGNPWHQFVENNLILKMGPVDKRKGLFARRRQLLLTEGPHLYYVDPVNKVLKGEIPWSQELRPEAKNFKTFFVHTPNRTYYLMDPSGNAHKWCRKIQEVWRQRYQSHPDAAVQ
The assay is described as follows: PDK-1 inhibition assay (radioactive-phosphate incorporation). The note with it: 40 μM ATP, 65 μM PDKtide, 25 nM PDK-1, 30° C.
Description: Compounds were screened for their ability to inhibit PDK-1 using a radioactive-phosphate incorporation assay (Pitt and Lee, J. Biomol. Screen., (1996) 1, 47). Assays were carried out in a mixture of 100 mM HEPES (pH 7.5), 10 mM MgCl2, 25 mM NaCl, 2 mM DTT. Final substrate concentrations in the assay were 40 μM ATP (Sigma Chemicals) and 65 μM peptide (PDKtide, Upstate, Lake Placid, N.Y.). Assays were carried out at 30° C. and 25 nM PDK-1 in the presence of ˜27.5 nCi/μL of [γ-^32P]ATP (Amersham Pharmacia Biotech, Amersham, UK). An assay stock buffer solution was prepared containing all of the reagents listed above, with the exception of ATP, and the test compound of interest. 15 μl of the stock solution was placed in a 96 well plate followed by addition of 1 μl of 0.5 mM DMSO stock containing the test compound (final compound concentration 25 μM, final DMSO concentration 5%). The plate was preincubated for about 10 minutes at 30° C. and the reaction initiated by addition of 4 μl ATP (final concentration 40 μM).
The reaction was stopped after 10 minutes by the addition of 100 μL 100 mM phosphoric acid, 0.01% Tween-20. A phosphocellulose 96 well plate (Millipore, Cat no. MAPHNOB50) was pretreated with 100 μL 100 mM phosphoric acid, 0.01% Tween-20 prior to the addition of the reaction mixture (100 μL). The spots were left to soak for at least 5 minutes, prior to wash steps (4×200 μL 100 mM phosphoric acid, 0.01% Tween-20). Alter drying, 20 μL Optiphase ‘SuperMix’ liquid scintillation cocktail (Perkin Elmer) was added to the well prior to scintillation counting (1450 Microbeta Liquid Scintillation Counter, Wallac).

Assay [3] deals with AKT-3 (Homo sapiens, UniProt Q9Y243). The assay is described as follows: AKT-3 inhibition assay (standard coupled enzyme assay). The note with it: 170 μM ATP, 200 μM peptide, 45 nM AKT, 30° C.
AKT-3, sequence (Q9Y243 whole entry): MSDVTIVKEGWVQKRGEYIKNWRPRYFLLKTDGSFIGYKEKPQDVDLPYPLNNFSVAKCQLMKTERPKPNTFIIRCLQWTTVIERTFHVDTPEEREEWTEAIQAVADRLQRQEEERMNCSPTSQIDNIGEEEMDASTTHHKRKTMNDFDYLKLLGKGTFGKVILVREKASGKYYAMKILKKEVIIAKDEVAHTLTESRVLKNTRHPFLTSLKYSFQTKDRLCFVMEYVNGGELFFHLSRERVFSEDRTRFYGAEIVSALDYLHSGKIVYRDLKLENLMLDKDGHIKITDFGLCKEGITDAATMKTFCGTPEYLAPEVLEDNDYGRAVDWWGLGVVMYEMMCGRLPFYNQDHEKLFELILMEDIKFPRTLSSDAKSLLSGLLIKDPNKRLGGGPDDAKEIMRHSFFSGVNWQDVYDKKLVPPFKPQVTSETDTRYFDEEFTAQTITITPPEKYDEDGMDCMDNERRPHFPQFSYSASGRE

On to `NCCC(C(=O)Nc1ccc2[nH]nc(-c3ccc(-c4ccccc4)cc3)c2c1)c1ccccc1` (centres unmarked) [Compound I-236], for which the Ki (usually a measure of affinity in units of concentration, obtained from inhibition or displacement) in assay [1] was less than 1 µM; in assay [2], less than 1 µM; in assay [3], 1 to 10 µM.
Regarding `N#Cc1ccc(C(=O)Nc2n[nH]c3ccc(NC(=O)C(CCN)c4ccc(Cl)c(Cl)c4)cc23)cc1` (centres unmarked) [Compound I-174], the Ki in assay [1], in assay [2] and in assay [3] was less than 1 µM throughout.
As to `NC(C(=O)Nc1ccc2[nH]ncc2c1)c1ccc(Cl)c(Cl)c1` (centres unmarked) [Compound I-54], the inhibition constant (Ki) in assay [1] was less than 1 µM; in assay [2], more than 3 µM; in assay [3], 1 to 10 µM.
The corresponding values for `NCCC(C(=O)Nc1ccc2[nH]nc(NC(=O)c3cccs3)c2c1)c1ccc(Cl)c(Cl)c1` (centres unmarked) [Compound I-169] are less than 1 µM, less than 1 µM and less than 1 µM.
With `NCCC(C(=O)Nc1ccc2[nH]nc(NC(=O)c3cccs3)c2c1)c1ccccc1` (centres unmarked) [Compound I-1043], the Ki in assay [1], in assay [2] and in assay [3] was less than 1 µM in each case.
On to `NCCC(C(=O)Nc1ccc2[nH]nc(NCc3ccccc3)c2c1)c1ccc(Cl)c(Cl)c1` (centres unmarked) [Compound I-158], for which the inhibitory constant (Ki) is less than 1 µM in assay [1], 1 to 3 µM in assay [2] and 1 to 10 µM in assay [3].
The corresponding values for `NCCC(C(=O)Nc1ccc2[nH]nc(NC(=O)c3cccc(OC(F)(F)F)c3)c2c1)c1ccc(Cl)c(Cl)c1` (centres unmarked) [Compound I-204] are less than 1 µM, more than 3 µM and less than 1 µM.
For `COc1cccc(C(=O)Nc2n[nH]c3ccc(NC(=O)C(CCN)c4ccc(Cl)c(Cl)c4)cc23)c1` (centres unmarked) [Compound I-167], the Ki in assay [1], in assay [2] and in assay [3] was less than 1 µM in each case.
With `NCCC(C(=O)Nc1ccc2[nH]nc(NC(=O)c3cccc(C(F)(F)F)c3)c2c1)c1ccc(Cl)c(Cl)c1` (centres unmarked) [Compound I-200], the Ki in assay [1] was less than 1 µM; in assay [2], more than 3 µM; in assay [3], less than 1 µM.
As for `NCCC(C(=O)Nc1ccc2[nH]nc(NC(=O)c3ccccn3)c2c1)c1ccc(Cl)c(Cl)c1` (centres unmarked) [Compound I-195], the Ki in assay [1], in assay [2] and in assay [3] was less than 1 µM in each case.
For `NCCC(C(=O)Nc1ccc2[nH]nc(NC(=O)c3cccc(Oc4ccccc4)c3)c2c1)c1ccc(Cl)c(Cl)c1` (centres unmarked) [Compound I-178], the Ki was less than 1 µM in assay [1], more than 3 µM in assay [2] and less than 1 µM in assay [3].
Consider `NCCC(C(=O)Nc1ccc2[nH]nc(NC(=O)c3cc(C(F)(F)F)cc(C(F)(F)F)c3)c2c1)c1ccc(Cl)c(Cl)c1` (centres unmarked) [Compound I-202], for which the Ki in assay [1] was 1 to 5 µM; in assay [2], more than 3 µM; in assay [3], less than 1 µM.
The corresponding values for `NCCC(C(=O)Nc1ccc2[nH]nc(NC(=O)c3ccc(Cl)cc3)c2c1)c1ccc(Cl)c(Cl)c1` (centres unmarked) [Compound I-182] are less than 1 µM, less than 1 µM and less than 1 µM.
The corresponding values for `C=Cc1cccc(C(=O)Nc2n[nH]c3ccc(NC(=O)C(CCN)c4ccc(Cl)c(Cl)c4)cc23)c1` (centres unmarked) [Compound I-196] are less than 1 µM, more than 3 µM and less than 1 µM.
The corresponding values for `NCCC(C(=O)Nc1ccc2[nH]nc(-c3ccc(F)cc3)c2c1)c1ccc(Cl)c(Cl)c1` (centres unmarked) [Compound I-234] are less than 1 µM, less than 1 µM and less than 1 µM.
In the case of `Cc1n[nH]c2ccc(NC(=O)C(CCN)c3cccc(Cl)n3)cc12` (centres unmarked) [Compound I-129], the Ki is less than 1 µM in assay [1], 1 to 3 µM in assay [2] and less than 1 µM in assay [3].
Turning to `NCCC(C(=O)Nc1ccc2[nH]nc(NC(=O)c3ccco3)c2c1)c1ccccc1` (centres unmarked) [Compound I-1041], the Ki in assay [1] is less than 1 µM; in assay [2], less than 1 µM; in assay [3], 1 to 10 µM.
As for `CNCCC(C(=O)Nc1ccc2[nH]ncc2c1)c1ccc(Cl)c(Cl)c1` (centres unmarked) [Compound I-153], the Ki in assay [1] is less than 1 µM; in assay [2], more than 3 µM; in assay [3], less than 1 µM.
For `NC[C@@H](C(=O)Nc1ccc2[nH]ncc2c1)c1ccc(Cl)c(Cl)c1` [Compound I-247], the Ki in assay [1] was less than 1 µM; in assay [2], more than 3 µM; in assay [3], less than 1 µM.
On to `COc1ccc(C(=O)Nc2n[nH]c3ccc(NC(=O)C(CCN)c4ccc(Cl)c(Cl)c4)cc23)cc1` (centres unmarked) [Compound I-168], for which the Ki in assay [1], in assay [2] and in assay [3] was less than 1 µM in each case.
With `NCCC(C(=O)Nc1ccc2[nH]nc(-c3ccccc3)c2c1)c1ccccc1` (centres unmarked) [Compound I-1028], the Ki in assay [1] was less than 1 µM; in assay [2], less than 1 µM; in assay [3] it was 1 to 10 µM.
For `NCCC(C(=O)Nc1ccc2[nH]nc(NC(=O)c3cc(Cl)cc(Cl)c3)c2c1)c1ccc(Cl)c(Cl)c1` (centres unmarked) [Compound I-184], the Ki in assay [1] is less than 1 µM; in assay [2], more than 3 µM; in assay [3], less than 1 µM.
`NCCC(C(=O)Nc1ccc2[nH]ncc2c1)c1c(F)ccc(Cl)c1F` (centres unmarked) [Compound I-109]: the Ki in assay [1], in assay [2] and in assay [3] was less than 1 µM in each case.
Regarding `C#Cc1n[nH]c2ccc(NC(=O)C(CCN)c3ccc(Cl)c(Cl)c3)cc12` (centres unmarked) [Compound I-124], the Ki in assay [1] was less than 1 µM; in assay [2], 1 to 3 µM; in assay [3] it was less than 1 µM.
Turning to `CCc1ccc(C(=O)Nc2n[nH]c3ccc(NC(=O)C(CCN)c4ccc(Cl)c(Cl)c4)cc23)cc1` (centres unmarked) [Compound I-187], the Ki in assay [1] was less than 1 µM; in assay [2], 1 to 3 µM; in assay [3] it was less than 1 µM.
`NCC[C@H](C(=O)Nc1ccc2[nH]nc(-c3ccccc3)c2c1)c1ccccc1` [Compound I-1053]: the Ki in assay [1] is 1 to 5 µM; in assay [2] it was less than 1 µM; in assay [3] it was 10 to 20 µM.
Turning to `NCC[C@H](C(=O)Nc1ccc2[nH]nc(NC(=O)c3cccs3)c2c1)c1ccccc1` [Compound I-1044], the Ki in assay [1], in assay [2] and in assay [3] was less than 1 µM each time.
On to `NCCC(C(=O)Nc1ccc2[nH]nc(NC(=O)c3ccc(Oc4ccccc4)cc3)c2c1)c1ccc(Cl)c(Cl)c1` (centres unmarked) [Compound I-199], for which the inhibition constant (Ki) was less than 1 µM in assay [1], 1 to 3 µM in assay [2] and less than 1 µM in assay [3].
`NCCC(C(=O)Nc1ccc2[nH]nc(NC(=O)c3ccncc3)c2c1)c1ccc(Cl)c(Cl)c1` (centres unmarked) [Compound I-193]: the inhibition constant (Ki) in assay [1], in assay [2] and in assay [3] was less than 1 µM in each case.
Take `NCCC(C(=O)Nc1ccc2[nH]nc(NC3CCCCC3)c2c1)c1ccc(Cl)c(Cl)c1` (centres unmarked) [Compound I-159]: the Ki was less than 1 µM in assay [1], more than 3 µM in assay [2] and 1 to 10 µM in assay [3].
Turning to `Cc1n[nH]c2ccc(NC(=O)[C@@H](CCN)c3ccccc3)cc12` [Compound I-1033], the inhibition constant (Ki) in assay [1] was less than 1 µM; in assay [2], more than 3 µM.
The corresponding values for `NCCC(C(=O)Nc1ccc2[nH]nc(-c3ccc(-c4nn[nH]n4)cc3)c2c1)c1ccccc1` (centres unmarked) [Compound I-261] are less than 1 µM and less than 1 µM.
The corresponding values for `Cc1ccc(-c2n[nH]c3ccc(NC(=O)C(CCN)c4ccccc4)cc23)cc1` (centres unmarked) [Compound I-249] are less than 1 µM and less than 1 µM.
As to `Cc1n[nH]c2ccc(NC(=O)C(CCN)c3ccccc3F)cc12` (centres unmarked) [Compound I-1026], the Ki in assay [1] and in assay [2] was less than 1 µM each time.
Take `NCCC(C(=O)Nc1ccc2[nH]nc(-c3cccc(CN)c3)c2c1)c1ccccc1` (centres unmarked) [Compound I-260]: the Ki in assay [1] and in assay [2] was less than 1 µM each time.
As to `NCCC(C(=O)Nc1ccc2[nH]nc(-c3cccc(F)c3)c2c1)c1ccccc1` (centres unmarked) [Compound I-240], the Ki in assay [1] and in assay [2] was less than 1 µM in each case.
Regarding `NCCC(C(=O)Nc1ccc2[nH]nc(-c3cccc(C(F)(F)F)c3)c2c1)c1ccccc1` (centres unmarked) [Compound I-230], the Ki in assay [1] and in assay [2] was less than 1 µM in each case.
